Twelve compounds from US7078403B1, “Antiviral agents” (Biota Scientific Management Pty Ltd., priority 1999, dated 2006) can be followed below.

For series [1], the system named is Enterovirus strains Poliovirus 2, Echoviruses 2, 3, 9, 21 and 30 and Coxsackie B3. Format: cell-based. Conditions: all Enterovirus strains tested.
A short description of series [2]: in vitro. The note with it: human.
Series [3] can be described thus: in vitro.
A further series concerns HRV type 2. Put plainly: Inhibition of viral cytopathic effect (CPE), visual scoring or neutral red, HRV type 2 in KB cells. It is filed as cell-based, human rhinovirus. The note with it: for EC50: Enterovirus, read-out: Activity on Rhinovirus Type 2 EC50; for EC50 / Activity on Rhinovirus Type 2 EC50: HRV type 2 in KB cells, CPE inhibition; for Activity on Rhinovirus Type 2 SI: selectivity index = CC50 or MTC divided by EC50, HRV type 2, KB cells. A general note: Cytopathic effects are the visible damage that an infection or toxin causes in cultured cells.

For the next series, the system named is Enterovirus 70. Nature of the series: Activity on Enterovirus 70 in mammalian cell culture assay. Format: cell-based. The note with it: Enterovirus D.
Series [4] is described as follows: in vitro. The source holds these as a separate data set.
Series [5] deals with Human Rhinovirus strains 1B, 3, 4, 5, 6, 8, 9, 11, 12, 13, 16, 17, 21, 25, 30, 32, 33, 38, 39, 40, 42, 43, 45, 48, 52, 54, 56, 57, 59, 60, 63, 67, 68, 69, 72 …. Nature of the series: Standard CPE reduction assay against a panel of Human Rhinovirus strains. It is filed as cell-based.
In the next series the test system is Coxsackie A21. Nature of the series: Activity on Coxsackie A21 in mammalian cell culture assay. Format: cell-based.
For a further series, the system named is HRV type 1A. Put plainly: Inhibition of viral cytopathic effect (CPE), visual scoring or neutral red, HRV type 1A in MRC-5 cells. It is filed as cell-based, human rhinovirus. Conditions: for Activity on Rhinovirus Type 1A EC50: HRV type 1A in MRC-5 cells; for Activity on Rhinovirus Type 1A EC50 / EC50: CPE inhibition; for Activity on Rhinovirus Type 1A SI: selectivity index = CC50 or MTC divided by EC50, HRV type 1A, MRC-5 cells; for EC50: Enterovirus, MRC5, HRV type 1A in MRC-5 cells, read-out: Activity on Rhinovirus Type 1A EC50.

The subject of series [6] is human embryo lung (MRC-5) cells. Nature of the series: Cytotoxicity (CC50 or MTC) in uninfected MRC-5 cells. Conditions: unit not given.
In another series the test system is Rhinovirus Type 14. It is filed as cell-based, human rhinovirus. Conditions: for EC50: Enterovirus.
The test system of series [7] is human embryo lung (MRC-5) cells.
Series [8] in a line: in vitro. Conditions: mammalian cell culture (cell line not stated).
The next series deals with HRV-2. Nature of the series: Time of addition study, CPE inhibition of HRV-2 in KB cells. It is filed as cell-based, human rhinovirus. Conditions: Rhinovirus A, read-out: EC50 (visual assay).
Setting [9] is: HRV14, HRV-14, read-out: Activity on Rhinovirus Type 14 EC50.
The mark [10] stands for this setting: mammalian cell culture (cell line not stated).

Values after ≈ are worked out from the molar mass of the structure shown. Where two headings read alike, the source gives them in different places.

One may read the EC50 as the midpoint of the concentration-response curve. As for `CCO/N=C/c1ccc(OCCC2CCN(c3ccc(Cl)nn3)CC2)cc1` [Compound 1, 4-{2-[1-(6-Chloro-3-pyridazinyl)4-piperidinyl]ethoxy}benzaldehyde O-ethyloxime], the “Inhibitory activity compared with Pirodavir” value in series [1] and in series [5] (nearly all HRV strains tested) was “superior activity to Pirodavir” in each case. Moreover, the CC50 in “in vitro [2]” is over 1 µg/mL; in the series “in vitro [3]” it was over 50 µg/mL; in the series “in vitro [4]” it was over 50 µg/mL. Further, the figures for the EC50 with HRV type 2, with Enterovirus 70 and in the series on Coxsackie A21 were under 0.001 µg/mL, 0.03 µg/mL (≈ 0.0771 µM) and under 0.000156 µg/mL, respectively. In the series with HRV type 2, the “Activity on Rhinovirus Type 2 SI” value was over 1000.
`CCON=Cc1cc(C)c(OCCCc2cc(C)no2)c(C)c1` [Compound 24]: in the series with HRV type 1A, the “Activity on Rhinovirus Type 1A EC50” value is under 0.16 µg/mL and the “Activity on Rhinovirus Type 1A SI” value is recorded as over 320. Also, in the series with HRV type 2, the “Activity on Rhinovirus Type 2 EC50” value is under 0.05 µg/mL and the “Activity on Rhinovirus Type 2 SI” value is listed as over 500. The “Inhibitory activity compared with Pleconaril” value in [5] (HRV strains panel) is “superior activity to Pleconaril”. The “Activity on Rhinovirus Type 1A MTC” value in series [6] is over 50.
Regarding `CON=Cc1ccc(OCCC2CCN(c3ccc(Cl)nn3)CC2)c(C)c1` [Compound 44], in the series with HRV type 1A, the “Activity on Rhinovirus Type 1A EC50” value was under 0.003 µg/mL and the “Activity on Rhinovirus Type 1A SI” value is given as over 312. Also, in the series with HRV type 2, the “Activity on Rhinovirus Type 2 EC50” value turned out to be 0.026 µg/mL and the “Activity on Rhinovirus Type 2 SI” value was over 38. In addition, in [6], the “Activity on Rhinovirus Type 1A MTC” value was over 1. For the same compound, the “Activity on Rhinovirus Type 14 EC50” value in the series on Rhinovirus Type 14 (HRV-14) was 0.0194 µg/mL.
`CCO/N=C/c1cc(C)c(OCCCc2cc(-c3ccccc3)no2)c(C)c1` [Compound 127, 3,5-Dimethyl-[4-{3-(3-Phenyl-5-isoxazolyl)propoxy)]benzaldehyde O-ethyloxime]: in series [7], the “Activity on Rhinovirus Type 1A MTC” value is listed as over 1. Also, in the series with HRV type 1A, the EC50 amounted to 0.329 µg/mL (≈ 0.869 µM) and the “Activity on Rhinovirus Type 1A SI” value is reported as over 3.
Regarding `CCON=Cc1ccc(OCCC2CCN(c3ccc(C=O)nn3)CC2)cc1` [Compound 128, 4-(2-[1-(6-Formyl-3-pyridazinyl)-4-piperidinyl]ethoxy)benzaldehyde O-ethyloxime], the “Activity on Rhinovirus Type 1A MTC” value in series [7] was over 1. In addition, in the series on HRV type 1A, the EC50 was 0.063 µg/mL (≈ 0.165 µM) and the “Activity on Rhinovirus Type 1A SI” value was over 15.
In the case of `CCO/N=C/c1csc(OCCC2CCN(c3ccc(C)nn3)CC2)n1` [Compound 155, 2-(1-(6 methyl-3-pyridazinyl)-4-piperidinylethoxy)-thiazole-4-carboxaldehyde O-ethyl oxime], the CC50 in “in vitro [8]” was over 0.5 µg/mL. Further, the EC50 with Rhinovirus Type 14 (setting [9]) came to 0.0138 µg/mL (≈ 0.0368 µM).
For `CCO/N=C/c1ccc(OCCC2CCN(c3nnc(C)s3)CC2)cc1` [Compound 158], in “in vitro [8]”, the CC50 was over 0.5 µg/mL. Moreover, the EC50 with Rhinovirus Type 14 (setting [9]) turned out to be 0.00095 µg/mL (≈ 0.00254 µM).
In “in vitro [8]”, `CCO/N=C/c1ccc(OCCCCCN(C)c2ccc(Cl)nn2)cc1` [Compound 161] displayed a CC50 of over 0.5 µg/mL. The EC50 in the series on Rhinovirus Type 14 (setting [9]) was 0.0348 µg/mL (≈ 0.0923 µM).
Turning to `CC(C)S(=O)(=O)n1c(N)nc2ccc(/C(=N/O)c3ccccc3)cc21` [Enviroxime], the “Activity on Rhinovirus Type 1A MTC” value in series [7] was determined as 0.49. Also, the values for the EC50 in the series with HRV type 1A, with Enterovirus 70 and in the series on Coxsackie A21 were 0.006 µg/mL (≈ 0.0167 µM), 0.21 µg/mL (≈ 0.586 µM) and 0.39 µg/mL (≈ 1.09 µM), respectively. Besides, the “Activity on Rhinovirus Type 1A SI” value with HRV type 1A came to 75.91.
`CCOC(=O)c1ccc(OCCC2CCN(c3ccc(C)nn3)CC2)cc1` [Pirodavir, ethyl 4-[2-[1-(6-methyl-3-pyridazinyl)-4-piperidinyl]-ethoxy]benzoate]: the “Activity on Rhinovirus Type 1A MTC” value in [7] is reported as over 10.00. Besides, in “in vitro [2]”, the CC50 is over 1 µg/mL. Also, the concentration giving a half-maximal response (EC50) in the series with HRV-2 (HRV2, time of addition 0 hr) is 0.004 µg/mL (≈ 0.0108 µM); in the series with HRV-2 (HRV2, time of addition 1 hr post-virus) it was 0.1 µg/mL (≈ 0.271 µM); in the series on HRV-2 (HRV2, time of addition 2 hr post-virus), over 0.1 µg/mL; in the series on HRV-2 (HRV2, time of addition 4 hr post-virus), over 0.1 µg/mL; with HRV-2 (HRV2, time of addition 6 hr post-virus), over 0.1 µg/mL; with HRV-2 (HRV2, time of addition 8 hr post-virus) it was over 0.1 µg/mL. Also, the EC50 in the series on HRV-2 (HRV2, time of addition 24 hr post-virus) is over 0.1 µg/mL; in the series with HRV-2 (HRV2, time of addition −1 hr (pre-treatment)), 0.023 µg/mL (≈ 0.0623 µM); with HRV type 1A, 0.02 µg/mL (≈ 0.0541 µM); with HRV type 2, 0.003 µg/mL (≈ 0.00812 µM). Also, the “Activity on Rhinovirus Type 1A SI” value with HRV type 1A is 555.74. In the series on HRV type 2, the “Activity on Rhinovirus Type 2 SI” value is reported as over 300.
`Cc1cc(CCCOc2c(C)cc(-c3noc(C(F)(F)F)n3)cc2C)on1` [Pleconaril, reference compound] returned a CC50 in “in vitro [8]” of over 0.1 µg/mL. Also, the EC50 in the series on Rhinovirus Type 14 (HRV14, read-out: Activity on Rhinovirus Type 14 EC50) turned out to be 0.0608 µg/mL (≈ 0.159 µM).
Take `NC(=O)c1ncn([C@@H]2O[C@H](CO)[C@@H](O)[C@H]2O)n1` [Ribavirin]: the EC50 is 1.93 µg/mL (≈ 7.9 µM) in the series on HRV type 1A, over 100 µg/mL with Enterovirus 70 and over 100 µg/mL in the series on Coxsackie A21. The “Activity on Rhinovirus Type 1A SI” value in the series on HRV type 1A stood at 51.03. For the same compound, the CC50 in the series “in vitro [3]” (setting [10]) and in “in vitro [4]” (setting [10]) was over 100 µg/mL throughout. Also, the “Activity on Rhinovirus Type 1A MTC” value in [6] is on record as 98.3.
